Literature values in patent publication US11833161B2, “Compositions and methods for treatment of skin infections” (priority 2015, dated 2023).

How the values were obtained:
[1] = test system: warts (verrucae); details: one case, 2 large mosaic verruca; previous treatments by 2 podiatrists and a dermatologist over 14 months
[2] = test system: cutaneous warts; details: meta-analysis of trials, topical treatment of cutaneous warts; range in brackets

Question: With `CN/C(=N/CCSCc1nc[nH]c1C)NC#N` [cimetidine] as the compound, how does the “outcome of previous treatments in the difficult case” value [1] read?
Answer: The value was “unsuccessful”.

Question: For `O=C(O)c1ccccc1O` [salicylic acid], which cure rate [2] is on record?
Answer: The cure rate was 52% (0-87%).

Question: For Vitamin A, which “outcome of previous treatments in the difficult case” value [1] is on record?
Answer: Its value is “unsuccessful”.
